Assays:
Conditions in all cases: incubation time: 72 h
MFM-223 [1] = assay: normalised response (% of control), CellTiter-Glo; higher = more viable cells (100 = DMSO, 0 = benzethonium chloride kill control)
In short: (§1)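 Two readouts were taken after 72 h: CellTox Green fluorescence (485/520 nm) first, then CellTiter-Glo luminescence after 10 min at room temperature. Breast cancer cell lines had been seeded as 20 µl suspension into 384-well plates holding compound at 5 concentrations in 10-fold steps across a compound-specific 10,000-fold range. Each value is a normalised signal at a single concentration, with plates scaled to 0.1 % DMSO (100) and a positive kill control (0).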

CAL-120 [2] = assay: as above
In short: as §1

MDA-MB-231 [3] = assay: as above
In short: as §1

CAL-85-1 [4] = assay: as above
In short: as §1

MDA-MB-468 [5] = assay: as above
In short: as §1

HDQ-P1 [6] = assay: as above
In short: as §1

SK-BR-3 = assay: as above
In short: as §1

MCF-10A [7] = assay: as above
In short: as §1

MDA-MB-436 [8] = assay: as above
In short: as §1

HCC1599 [9] = assay: as above
In short: as §1

Hs578T [10] = assay: as above
In short: as §1

CAL-148 [11] = assay: as above
In short: as §1

BT-474 [12] = assay: as above
In short: as §1

HCC1937 [13] = assay: as above
In short: as §1

HCC1143 [14] = assay: as above
In short: as §1

CAL-51 [15] = assay: as above
In short: as §1

MDA-MB-453 [16] = assay: as above
In short: as §1

DU-4475 [17] = assay: as above
In short: as §1

BT-549 [18] = assay: as above
In short: as §1

MFM-223 [19] = assay: normalised response (% of control), CellTox Green; higher = less cell death (100 = DMSO, 0 = benzethonium chloride kill control)
In short: as §1

CAL-120 [20] = assay: as above
In short: as §1

MDA-MB-231 [21] = assay: as above
In short: as §1

CAL-85-1 [22] = assay: as above
In short: as §1

MDA-MB-468 [23] = assay: as above
In short: as §1

HDQ-P1 [24] = assay: as above
In short: as §1

MCF-10A [25] = assay: as above
In short: as §1

MDA-MB-436 [26] = assay: as above
In short: as §1

HCC1599 [27] = assay: as above
In short: as §1

Hs578T [28] = assay: as above
In short: as §1

CAL-148 [29] = assay: as above
In short: as §1

BT-474 [30] = assay: as above
In short: as §1

HCC1937 [31] = assay: as above
In short: as §1

HCC1143 [32] = assay: as above
In short: as §1

CAL-51 [33] = assay: as above
In short: as §1

MDA-MB-453 [34] = assay: as above
In short: as §1

DU-4475 [35] = assay: as above
In short: as §1

BT-549 [36] = assay: as above
In short: as §1

Compound	normalised response (MFM-223 [1])	normalised response (CAL-120 [2])	normalised response (MDA-MB-231 [3])	normalised response (CAL-85-1 [4])	normalised response (MDA-MB-468 [5])	normalised response (HDQ-P1 [6])	normalised response (SK-BR-3)	normalised response (MCF-10A [7])	normalised response (MDA-MB-436 [8])	normalised response (HCC1599 [9])	normalised response (Hs578T [10])	normalised response (CAL-148 [11])	normalised response (BT-474 [12])	normalised response (HCC1937 [13])	normalised response (HCC1143 [14])	normalised response (CAL-51 [15])	normalised response (MDA-MB-453 [16])	normalised response (DU-4475 [17])	normalised response (BT-549 [18])	normalised response (MFM-223 [19])	normalised response (CAL-120 [20])	normalised response (MDA-MB-231 [21])	normalised response (CAL-85-1 [22])	normalised response (MDA-MB-468 [23])	normalised response (HDQ-P1 [24])	normalised response (MCF-10A [25])	normalised response (MDA-MB-436 [26])	normalised response (HCC1599 [27])	normalised response (Hs578T [28])	normalised response (CAL-148 [29])	normalised response (BT-474 [30])	normalised response (HCC1937 [31])	normalised response (HCC1143 [32])	normalised response (CAL-51 [33])	normalised response (MDA-MB-453 [34])	normalised response (DU-4475 [35])	normalised response (BT-549 [36])
C=CCc1cccc(/C=N/NC(=O)CN2CCN(Cc3ccccc3)CC2)c1O [PAC-1] (10000 nM)	43.4%	34.8%	45%	21%	11.6%	61.4%	14.9%	77.7%	17.8%	33.4%	73.5%	26.6%	38.9%	27.7%	41.4%	5.5%	26.4%	9.69%	34%	103%	70.5%	86.4%	63.3%	65.4%	113%	99.2%	103%	91%	116%	61.4%	74.2%	96%	101%	68.6%	93.7%	86.9%	2.94%
CC[C@H](C)C(=O)O[C@H]1C[C@H](O)C=C2C=C[C@H](C)[C@H](CC[C@@H](O)C[C@@H](O)CC(=O)O)[C@H]21 [Pravastatin] (10000 nM)	49.5%	58%	61%	44.8%	34.5%	65.7%	21.6%	67.1%	21.6%	29.5%	70.3%	39.7%	50.8%	37%	42.3%	36%	55.3%	41.6%	56.4%	63.1%	101%	54.3%	106%	21.1%	97.2%	26.1%	-63.1%	89.1%	115%	91.6%	99.4%	96.1%	101%	16.5%	94.4%	93.2%	90.3%
Cc1cnc(NC(=O)Nc2cc(Br)c(C)cc2OC[C@@H]2CNCCO2)cn1 [Rabusertib] (1000 nM)	98.2%	102%	92.1%	87.8%	102%	100%	48.6%	112%	116%	29.4%	71.3%	112%	100%	80.9%	99.5%	110%	77.2%	106%	91.5%	82.7%	106%	100%	59.3%	137%	110%	109%	104%	95.7%	103%	58.9%	103%	114%	129%	111%	104%	102%	109%
COc1cc([C@@H]2c3cc4c(cc3[C@@H](O[C@@H]3O[C@@H]5CO[C@@H](c6cccs6)O[C@H]5[C@H](O)[C@H]3O)[C@H]3COC(=O)[C@H]23)OCO4)cc(OC)c1O [Teniposide] (10000 nM)	12.9%	23.6%	15.6%	8.03%	7.53%	34.3%	6.25%	51.8%	17.1%	5.92%	6.65%	4.81%	9.52%	22.8%	10.8%	14%	64%	4.51%	5.21%	48.8%	22.2%	-78.1%	-1.62%	29.8%	-41.5%	59.6%	80.5%	67%	45.6%	38.7%	59.4%	51%	74.5%	13.6%	105%	61.9%	59%
COc1cc2nccc(Oc3ccc(NC(=O)Nc4cc(C)on4)c(Cl)c3)c2cc1OC [Tivozanib] (10000 nM)	34.3%	50.6%	46%	76.6%	52.2%	62.2%	70.8%	42.7%	79.6%	77.2%	63.8%	77.6%	50.3%	61.6%	86.2%	70.7%	64.3%	91.9%	64.2%	93.8%	89.6%	77.7%	100%	134%	93.9%	91.7%	104%	102%	21.6%	78.1%	85.2%	111%	110%	25%	104%	98%	126%
CC(=O)Nc1cccc(-n2c(=O)n(C3CC3)c(=O)c3c(Nc4ccc(I)cc4F)n(C)c(=O)c(C)c32)c1 [Trametinib] (250 nM)	60.2%	62.2%	61.9%	46.2%	82.5%	57.4%	96.1%	32.3%	79.2%	88.3%	64.6%	84.3%	60.1%	66.5%	81.2%	69%	98%	0.48%	89%	101%	77.3%	63.1%	31.4%	96%	82.9%	60.7%	113%	110%	118%	86%	101%	110%	120%	86.8%	105%	73.2%	119%
CC1=C(/C=C/C(C)=C/C=C/C(C)=C/C(=O)O)C(C)(C)CCC1 [Tretinoin] (10000 nM)	78.9%	98.2%	63.5%	56.5%	81%	90%	21.8%	60.7%	79.2%	61.6%	72.9%	75%	62.2%	72.3%	84.7%	86.2%	56.4%	89.9%	62.2%	103%	101%	36.8%	55.4%	127%	80.3%	73.5%	88.9%	102%	75.1%	102%	68.7%	61.1%	84.1%	98.5%	94.4%	98%	76.9%
COc1cc2c(NC3CCN(C(C)C)CC3)nc(C3CCCCC3)nc2cc1OCCCN1CCCC1 [UNC0638] (10000 nM)	3.95%	8.51%	0.6%	0.26%	0.31%	23.3%	2.89%	0.31%	7.47%	14%	51.9%	3.47%	2.59%	13.6%	36.4%	17%	0.34%	71.8%	1.52%	36.8%	-29.4%	-58.7%	-10.2%	-186%	58.6%	-76.4%	18.6%	62.2%	13.9%	2.74%	-17.5%	-27%	94.9%	-16.4%	-11.5%	88.3%	17%

— the supplement of paper PMC4862054
